Reference: ChEMBL document CHEMBL3611986, “Reversal of P-gp and BCRP-mediated MDR by tariquidar derivatives” (Eur J Med Chem, 2015)
Calls of active or inactive are those of the source. No cut-off for these calls is given here.

tested on: HCT-116; assay: Cytotoxicity against human HCT116 cells assessed as cell viability after 48 hrs by MTT assay; format: cell-based; details: HCT-116, 48 h

Row | SMILES | IC50 [µM]
1 | COc1cc2c(cc1OC)CN(CCc1ccc(NC(=O)c3ccccc3NC(=O)/C=C/c3ccccc3)cc1)CC2 | > 100
2 | COc1cc2c(cc1OC)CN(CCc1ccc(NC(=O)c3ccccc3NS(=O)(=O)c3ccc(C(C)(C)C)cc3)cc1)CC2 | > 100
3 | COc1cc2c(cc1OC)CN(CCc1ccc(NC(=O)c3ccccc3N(S(=O)(=O)c3ccccc3)S(=O)(=O)c3ccccc3)cc1)CC2 | > 100

tested on: SW-620; assay: Cytotoxicity against human SW620 cells assessed as cell viability after 48 hrs by MTT assay; format: cell-based; details: SW-620, 48 h

Row | SMILES | IC50 [µM]
4 | COc1cc2c(cc1OC)CN(CCc1ccc(NC(=O)c3ccccc3NC(=O)/C=C/c3ccccc3)cc1)CC2 | > 100
5 | COc1cc2c(cc1OC)CN(CCc1ccc(NC(=O)c3ccccc3NS(=O)(=O)c3ccc(C(C)(C)C)cc3)cc1)CC2 | > 100
6 | COc1cc2c(cc1OC)CN(CCc1ccc(NC(=O)c3ccccc3N(S(=O)(=O)c3ccccc3)S(=O)(=O)c3ccccc3)cc1)CC2 | > 100

tested on: not listed separately; assay: Cytotoxicity against human SW620/AD300 cells assessed as cell viability after 48 hrs by MTT assay; format: cell-based; details: SW-620, 48 h

Row | SMILES | IC50 [µM]
7 | COc1cc2c(cc1OC)CN(CCc1ccc(NC(=O)c3ccccc3NC(=O)/C=C/c3ccccc3)cc1)CC2 | > 100
8 | COc1cc2c(cc1OC)CN(CCc1ccc(NC(=O)c3ccccc3NS(=O)(=O)c3ccc(C(C)(C)C)cc3)cc1)CC2 | > 100
9 | COc1cc2c(cc1OC)CN(CCc1ccc(NC(=O)c3ccccc3N(S(=O)(=O)c3ccccc3)S(=O)(=O)c3ccccc3)cc1)CC2 | > 100

tested on: not listed separately; assay: Cytotoxicity against human CCD-18Co cells assessed as cell viability after 48 hrs by MTT assay; format: cell-based; details: not given

Row | SMILES | IC50 [µM]
10 | COc1cc2c(cc1OC)CN(CCc1ccc(NC(=O)c3ccccc3NC(=O)/C=C/c3ccccc3)cc1)CC2 | > 100
11 | COc1cc2c(cc1OC)CN(CCc1ccc(NC(=O)c3ccccc3NS(=O)(=O)c3ccc(C(C)(C)C)cc3)cc1)CC2 | > 100
12 | COc1cc2c(cc1OC)CN(CCc1ccc(NC(=O)c3ccccc3N(S(=O)(=O)c3ccccc3)S(=O)(=O)c3ccccc3)cc1)CC2 | > 100

tested on: not listed separately; assay: Cytotoxicity against human HFE cells assessed as cell viability after 72 hrs by MTT assay; format: cell-based; details: not given

Row | SMILES | IC50 [µM]
13 | COc1cc2c(cc1OC)CN(CCc1ccc(NC(=O)c3ccccc3NC(=O)/C=C/c3ccccc3)cc1)CC2 | > 20
14 | COc1cc2c(cc1OC)CN(CCc1ccc(NC(=O)c3ccccc3NS(=O)(=O)c3ccc(C(C)(C)C)cc3)cc1)CC2 | > 100
15 | COc1cc2c(cc1OC)CN(CCc1ccc(NC(=O)c3ccccc3N(S(=O)(=O)c3ccccc3)S(=O)(=O)c3ccccc3)cc1)CC2 | > 5

tested on: Hepatocyte; assay: Cytotoxicity against rat hepatocytes assessed as cell viability after 72 hrs by MTT assay; format: cell-based; details: Rattus norvegicus, Hepatocyte

Row | SMILES | IC50 [µM]
16 | COc1cc2c(cc1OC)CN(CCc1ccc(NC(=O)c3ccccc3NC(=O)/C=C/c3ccccc3)cc1)CC2 | 100

same assay, conditions: rat, hepatocytes

Row | SMILES | Activity
17 | COc1cc2c(cc1OC)CN(CCc1ccc(NC(=O)c3ccccc3N(S(=O)(=O)c3ccccc3)S(=O)(=O)c3ccccc3)cc1)CC2 | Non-toxic

biological target: T1, ATP-dependent translocase ABCB1 (Homo sapiens, UniProt P08183); assay: Inhibition of p-glycoprotein-mediated rhodamine-123 efflux in human K562/p-gp cells at 0.5 uM after 1 hr by flow cytometry relative to tariquidar; format: cell-based; details: 1 h, 0.5 µM
T1 sequence (P08183 whole entry): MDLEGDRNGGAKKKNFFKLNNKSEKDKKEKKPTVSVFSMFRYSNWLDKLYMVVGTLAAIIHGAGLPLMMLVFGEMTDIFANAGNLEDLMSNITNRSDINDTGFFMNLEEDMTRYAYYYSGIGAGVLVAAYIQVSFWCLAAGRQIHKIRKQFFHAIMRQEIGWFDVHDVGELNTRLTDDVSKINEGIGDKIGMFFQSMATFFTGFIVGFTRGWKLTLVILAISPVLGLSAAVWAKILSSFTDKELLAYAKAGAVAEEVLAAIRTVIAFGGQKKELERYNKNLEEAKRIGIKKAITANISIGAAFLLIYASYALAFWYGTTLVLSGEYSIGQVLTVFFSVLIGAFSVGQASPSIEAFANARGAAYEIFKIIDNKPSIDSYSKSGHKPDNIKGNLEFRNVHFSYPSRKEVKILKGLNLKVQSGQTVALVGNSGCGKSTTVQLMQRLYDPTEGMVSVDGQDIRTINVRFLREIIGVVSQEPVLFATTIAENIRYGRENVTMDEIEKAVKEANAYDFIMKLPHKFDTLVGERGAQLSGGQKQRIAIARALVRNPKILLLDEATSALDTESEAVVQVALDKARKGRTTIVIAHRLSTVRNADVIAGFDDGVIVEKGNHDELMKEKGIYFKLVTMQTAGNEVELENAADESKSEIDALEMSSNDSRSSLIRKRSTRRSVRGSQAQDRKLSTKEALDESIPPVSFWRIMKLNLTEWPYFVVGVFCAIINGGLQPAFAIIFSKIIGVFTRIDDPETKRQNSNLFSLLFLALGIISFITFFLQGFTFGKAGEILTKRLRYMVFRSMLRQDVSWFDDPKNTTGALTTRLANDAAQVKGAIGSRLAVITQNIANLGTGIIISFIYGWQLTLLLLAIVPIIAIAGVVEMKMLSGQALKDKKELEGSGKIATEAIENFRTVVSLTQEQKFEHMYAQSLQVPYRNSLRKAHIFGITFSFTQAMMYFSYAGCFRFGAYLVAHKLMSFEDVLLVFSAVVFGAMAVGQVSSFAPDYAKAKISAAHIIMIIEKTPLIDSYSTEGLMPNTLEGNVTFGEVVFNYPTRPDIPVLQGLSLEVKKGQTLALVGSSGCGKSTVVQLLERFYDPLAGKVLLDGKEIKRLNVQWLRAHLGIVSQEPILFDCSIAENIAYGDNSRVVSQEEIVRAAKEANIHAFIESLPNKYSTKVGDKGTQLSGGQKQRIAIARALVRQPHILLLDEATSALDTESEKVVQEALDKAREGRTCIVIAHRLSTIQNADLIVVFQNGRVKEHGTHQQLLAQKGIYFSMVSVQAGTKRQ

Row | SMILES | inhibition (INH)
18 | COc1cc2c(cc1OC)CN(CCc1ccc(NC(=O)c3ccccc3NC(=O)/C=C/c3ccccc3)cc1)CC2 | Active
19 | COc1cc2c(cc1OC)CN(CCc1ccc(NC(=O)c3ccccc3N(S(=O)(=O)c3ccccc3)S(=O)(=O)c3ccccc3)cc1)CC2 | Active

biological target: T1, ATP-dependent translocase ABCB1; assay: Inhibition of p-glycoprotein-mediated rhodamine-123 efflux in human K562/p-gp cells after 1 hr by flow cytometry; format: cell-based; details: not given

Row | SMILES | inhibition (INH)
20 | COc1cc2c(cc1OC)CN(CCc1ccc(NC(=O)c3ccccc3NC(=O)/C=C/c3ccccc3)cc1)CC2 | Dose-dependent effect
21 | COc1cc2c(cc1OC)CN(CCc1ccc(NC(=O)c3ccccc3N(S(=O)(=O)c3ccccc3)S(=O)(=O)c3ccccc3)cc1)CC2 | Dose-dependent effect

tested on: K562; assay: Effect on rhodamine-123 efflux in wild type human K562 cells at 0.5 uM after 1 hr by flow cytometry; format: ADME, cell-based; details: k562, 1 h

Row | SMILES | Activity
22 | COc1cc2c(cc1OC)CN(CCc1ccc(NC(=O)c3ccccc3NC(=O)/C=C/c3ccccc3)cc1)CC2 | Non-toxic
23 | COc1cc2c(cc1OC)CN(CCc1ccc(NC(=O)c3ccccc3N(S(=O)(=O)c3ccccc3)S(=O)(=O)c3ccccc3)cc1)CC2 | Non-toxic

biological target: T1, ATP-dependent translocase ABCB1; assay: Inhibition of p-glycoprotein-mediated doxorubicin efflux in human K562/p-gp cells at 1 uM after 1 hr by flow cytometry; format: cell-based; details: not given

Row | SMILES | inhibition (INH)
24 | COc1cc2c(cc1OC)CN(CCc1ccc(NC(=O)c3ccccc3NS(=O)(=O)c3ccc(C(C)(C)C)cc3)cc1)CC2 | Active
25 | COc1cc2c(cc1OC)CN(CCc1ccc(NC(=O)c3ccccc3N(S(=O)(=O)c3ccccc3)S(=O)(=O)c3ccccc3)cc1)CC2 | Active

biological target: T2, BCRP (ABCG2) (Homo sapiens, UniProt Q9UNQ0); assay: Inhibition of BCRP-mediated pheophorbide-A efflux in human K562/BCRP cells at 0.5 uM after 1 hr by flow cytometry; format: cell-based; details: K562/BCRP cells, probe pheophorbide-A
T2 sequence (Q9UNQ0 whole entry): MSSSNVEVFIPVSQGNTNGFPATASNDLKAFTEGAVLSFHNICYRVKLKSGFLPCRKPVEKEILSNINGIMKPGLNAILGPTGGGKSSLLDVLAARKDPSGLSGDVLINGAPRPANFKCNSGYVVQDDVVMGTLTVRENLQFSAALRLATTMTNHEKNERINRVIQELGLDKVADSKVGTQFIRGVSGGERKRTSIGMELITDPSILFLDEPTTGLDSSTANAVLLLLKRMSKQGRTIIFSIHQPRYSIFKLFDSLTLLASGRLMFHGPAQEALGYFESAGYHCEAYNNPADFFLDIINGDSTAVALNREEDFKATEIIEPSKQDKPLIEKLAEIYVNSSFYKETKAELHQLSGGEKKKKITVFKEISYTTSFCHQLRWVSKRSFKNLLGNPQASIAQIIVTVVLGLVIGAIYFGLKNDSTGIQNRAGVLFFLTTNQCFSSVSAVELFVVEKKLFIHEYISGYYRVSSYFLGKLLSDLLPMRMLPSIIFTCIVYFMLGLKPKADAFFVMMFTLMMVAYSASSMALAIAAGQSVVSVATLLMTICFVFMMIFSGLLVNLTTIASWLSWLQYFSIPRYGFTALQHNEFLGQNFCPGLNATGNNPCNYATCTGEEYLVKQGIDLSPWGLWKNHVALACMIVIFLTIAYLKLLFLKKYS

Row | SMILES | inhibition at 1 h, 0.5 µM [%]
26 | COc1cc2c(cc1OC)CN(CCc1ccc(NC(=O)c3ccccc3NC(=O)/C=C/c3ccccc3)cc1)CC2 | 60

biological target: Multidrug resistance-associated protein 1 (Homo sapiens, UniProt P33527); assay: Inhibition of MRP1 (unknown origin)-mediated calcein-AM efflux expressed in HEK293/MRP1 cells at 0.5 uM after 1 hr by flow cytometry; format: cell-based; details: hek293/mrp1, 1 h
Sequence (P33527 whole entry): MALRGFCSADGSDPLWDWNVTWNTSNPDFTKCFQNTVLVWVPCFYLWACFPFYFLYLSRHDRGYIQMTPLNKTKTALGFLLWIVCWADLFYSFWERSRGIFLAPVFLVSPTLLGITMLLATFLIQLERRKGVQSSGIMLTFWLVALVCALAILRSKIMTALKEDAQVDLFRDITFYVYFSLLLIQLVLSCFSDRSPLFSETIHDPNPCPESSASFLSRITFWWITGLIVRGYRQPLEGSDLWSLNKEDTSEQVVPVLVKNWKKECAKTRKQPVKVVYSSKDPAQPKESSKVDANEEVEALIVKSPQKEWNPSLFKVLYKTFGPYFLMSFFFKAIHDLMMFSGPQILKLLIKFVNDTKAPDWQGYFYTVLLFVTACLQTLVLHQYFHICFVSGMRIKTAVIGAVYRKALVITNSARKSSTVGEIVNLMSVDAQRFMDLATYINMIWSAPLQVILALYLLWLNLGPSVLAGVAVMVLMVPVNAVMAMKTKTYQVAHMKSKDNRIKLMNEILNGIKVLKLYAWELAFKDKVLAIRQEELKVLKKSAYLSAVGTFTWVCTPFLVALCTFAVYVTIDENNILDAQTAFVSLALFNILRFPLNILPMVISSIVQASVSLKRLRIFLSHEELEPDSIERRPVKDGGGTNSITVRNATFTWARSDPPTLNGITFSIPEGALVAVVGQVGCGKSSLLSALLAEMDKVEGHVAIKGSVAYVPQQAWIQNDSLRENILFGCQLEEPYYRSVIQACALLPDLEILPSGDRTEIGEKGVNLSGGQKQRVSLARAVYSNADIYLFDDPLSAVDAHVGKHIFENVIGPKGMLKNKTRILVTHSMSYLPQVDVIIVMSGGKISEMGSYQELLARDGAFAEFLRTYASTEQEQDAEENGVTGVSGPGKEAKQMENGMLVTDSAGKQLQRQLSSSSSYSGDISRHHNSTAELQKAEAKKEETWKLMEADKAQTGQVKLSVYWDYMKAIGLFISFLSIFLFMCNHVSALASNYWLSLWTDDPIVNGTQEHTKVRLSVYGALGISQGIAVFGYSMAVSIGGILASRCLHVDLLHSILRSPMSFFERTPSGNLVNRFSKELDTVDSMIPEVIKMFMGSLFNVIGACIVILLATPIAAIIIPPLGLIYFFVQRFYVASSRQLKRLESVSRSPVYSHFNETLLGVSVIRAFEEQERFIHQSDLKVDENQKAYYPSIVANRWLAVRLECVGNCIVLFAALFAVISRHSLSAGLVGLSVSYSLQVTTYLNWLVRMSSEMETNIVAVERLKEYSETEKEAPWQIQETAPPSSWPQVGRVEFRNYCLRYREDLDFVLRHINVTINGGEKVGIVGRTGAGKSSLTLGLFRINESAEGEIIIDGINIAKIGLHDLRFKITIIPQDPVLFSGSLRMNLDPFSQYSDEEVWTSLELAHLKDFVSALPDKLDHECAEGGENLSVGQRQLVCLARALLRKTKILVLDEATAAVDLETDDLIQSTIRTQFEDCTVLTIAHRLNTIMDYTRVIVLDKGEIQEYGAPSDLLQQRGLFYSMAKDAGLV

Row | SMILES | inhibition (INH)
27 | COc1cc2c(cc1OC)CN(CCc1ccc(NC(=O)c3ccccc3NC(=O)/C=C/c3ccccc3)cc1)CC2 | Not Active
28 | COc1cc2c(cc1OC)CN(CCc1ccc(NC(=O)c3ccccc3NS(=O)(=O)c3ccc(C(C)(C)C)cc3)cc1)CC2 | Not Active
29 | COc1cc2c(cc1OC)CN(CCc1ccc(NC(=O)c3ccccc3N(S(=O)(=O)c3ccccc3)S(=O)(=O)c3ccccc3)cc1)CC2 | Not Active

tested on: not listed separately; assay: Potentiation of paclitaxel-induced cytotoxicity against human LCC6 cells at 200 nM after 72 hrs by SRB assay relative to control; format: functional; details: not given

Row | SMILES | fold change (FC)
30 | COc1cc2c(cc1OC)CN(CCc1ccc(NC(=O)c3ccccc3NC(=O)/C=C/c3ccccc3)cc1)CC2 | 1.6

biological target: T1, ATP-dependent translocase ABCB1; assay: Inhibition of p-glycoprotein in human LCC6/MDR cells assessed as increase of paclitaxel-induced cytotoxicity at 200 nM after 72 hrs by SRB assay relative to control; format: cell-based; details: 0.2 µM

Row | SMILES | fold change (FC)
31 | COc1cc2c(cc1OC)CN(CCc1ccc(NC(=O)c3ccccc3NC(=O)/C=C/c3ccccc3)cc1)CC2 | 33

tested on: MCF7; assay: Potentiation of mitoxantrone-induced cytotoxicity against human MCF7 cells at 200 nM after 72 hrs by SRB assay relative to control; format: functional; details: not given

Row | SMILES | fold change (FC)
32 | COc1cc2c(cc1OC)CN(CCc1ccc(NC(=O)c3ccccc3NC(=O)/C=C/c3ccccc3)cc1)CC2 | 1.5

biological target: T3, Broad substrate specificity ATP-binding cassette transporter ABCG2 (Homo sapiens, UniProt Q9UNQ0); assay: Inhibition of BCRP in human MCF-7 FLV1000 cells assessed as increase of mitoxantrone-induced cytotoxicity at 200 nM after 72 hrs by SRB assay relative to control; format: cell-based; details: 0.2 µM
T3 sequence (Q9UNQ0 whole entry): T2 sequence (Q9UNQ0 whole entry)

Row | SMILES | fold change (FC)
33 | COc1cc2c(cc1OC)CN(CCc1ccc(NC(=O)c3ccccc3NC(=O)/C=C/c3ccccc3)cc1)CC2 | 64

tested on: MCF7; assay: Cytotoxicity against human MCF7 cells at 200 nM after 72 hrs by SRB assay; format: cell-based; details: mcf7, 72 h, 0.2 µM

Row | SMILES | Activity
34 | COc1cc2c(cc1OC)CN(CCc1ccc(NC(=O)c3ccccc3NC(=O)/C=C/c3ccccc3)cc1)CC2 | Non-toxic

tested on: not listed separately; assay: Cytotoxicity against human MCF-7 FLV1000 cells expressing BCRP at 200 nM after 72 hrs by SRB assay; format: ADME, cell-based; details: mcf-7 flv1000, 72 h, 0.2 µM

Row | SMILES | Activity
35 | COc1cc2c(cc1OC)CN(CCc1ccc(NC(=O)c3ccccc3NC(=O)/C=C/c3ccccc3)cc1)CC2 | Non-toxic

tested on: not listed separately; assay: Cytotoxicity against human LCC6 cells at 200 nM after 72 hrs by SRB assay; format: cell-based; details: lcc6, 72 h, 0.2 µM

Row | SMILES | Activity
36 | COc1cc2c(cc1OC)CN(CCc1ccc(NC(=O)c3ccccc3NC(=O)/C=C/c3ccccc3)cc1)CC2 | Non-toxic

tested on: not listed separately; assay: Cytotoxicity against human LCC6 cells expressing p-glycoprotein at 200 nM after 72 hrs by SRB assay; format: cell-based; details: lcc6, 72 h, 0.2 µM

Row | SMILES | Activity
37 | COc1cc2c(cc1OC)CN(CCc1ccc(NC(=O)c3ccccc3NC(=O)/C=C/c3ccccc3)cc1)CC2 | Non-toxic

tested on: K562; assay: Induction of UIC2 antibody binding to p-glycoprotein in human K562 cells at 0.5 uM preincubated for 10 mins followed by antibody addition measured after 45 mins by flow cytometry relative to tariquidar; format: cell-based; details: not given

Row | SMILES | Activity
38 | COc1cc2c(cc1OC)CN(CCc1ccc(NC(=O)c3ccccc3NC(=O)/C=C/c3ccccc3)cc1)CC2 | 46.3%
39 | COc1cc2c(cc1OC)CN(CCc1ccc(NC(=O)c3ccccc3NS(=O)(=O)c3ccc(C(C)(C)C)cc3)cc1)CC2 | inactive

biological target: T3, Broad substrate specificity ATP-binding cassette transporter ABCG2; assay: Induction of 5D3 antibody binding to BCRP in human K562 cells at 0.5 uM preincubated for 10 mins followed by antibody addition measured after 45 mins by flow cytometry relative to tariquidar; format: cell-based; details: k562, 0.75 h

Row | SMILES | Activity
40 | COc1cc2c(cc1OC)CN(CCc1ccc(NC(=O)c3ccccc3NC(=O)/C=C/c3ccccc3)cc1)CC2 | 118.6%
41 | COc1cc2c(cc1OC)CN(CCc1ccc(NC(=O)c3ccccc3NS(=O)(=O)c3ccc(C(C)(C)C)cc3)cc1)CC2 | Not Active

organism: Homo sapiens; assay: Inhibition of p-glycoprotein (unknown origin) expressed in High five insect cell membranes assessed as ATP hydrolysis after 20 mins by colorimetric ATPase assay; details: not given

Row | SMILES | inhibition
42 | COc1cc2c(cc1OC)CN(CCc1ccc(NC(=O)c3ccccc3NC(=O)/C=C/c3ccccc3)cc1)CC2 | Dose-dependent effect

biological target: T3, Broad substrate specificity ATP-binding cassette transporter ABCG2; assay: Induction of BCRP (unknown origin) expressed in High five insect cell membranes assessed as ATP hydrolysis after 10 mins by colorimetric ATPase assay; details: not given

Row | SMILES | Activity
43 | COc1cc2c(cc1OC)CN(CCc1ccc(NC(=O)c3ccccc3NC(=O)/C=C/c3ccccc3)cc1)CC2 | Active
